As a reminder, the solubility (mole fraction) is solubility expressed as the solute's share of all molecules. On to `Cc1c(O)c(=O)ccn1C`, for which the solubility (mole fraction) runs as follows: (in acetonitrile, 283.1 K) 0.000187; (in acetonitrile, 293.1 K) 0.000324; (in acetonitrile, 303.1 K) 0.000599; (in acetonitrile, 313.1 K) 0.00091; (in acetonitrile, 323.1 K) 0.00137; (in ethyl acetate, 283.1 K) 6.77e-05. Besides, the solubility (mole fraction) was determined as 0.000104 (in ethyl acetate, 293.1 K); 0.000155 (in ethyl acetate, 303.1 K); 0.000218 (in ethyl acetate, 313.1 K); 0.000318 (in ethyl acetate, 323.1 K); 0.00194 (in methanol, 283.1 K); 0.00348 (in methanol, 293.1 K). Moreover, the solubility (mole fraction) runs as follows: (in methanol, 303.1 K) 0.0052; (in methanol, 313.1 K) 0.00775; (in methanol, 323.1 K) 0.0114; (in water, 283.1 K) 0.00184; (in water, 293.1 K) 0.00227; (in water, 303.1 K) 0.0031. The solubility (mole fraction) runs as follows: (in water, 313.1 K) 0.00414; (in water, 323.1 K) 0.00532.

On to `C=CC1=C(C(=O)O)N2C(=O)[C@@H](NC(=O)/C(=N\OCC(=O)O)c3csc(N)n3)[C@H]2SC1.O.O.O`, for which the solubility (mole fraction) turned out to be 8.28e-05 (in acetonitrile, 283.1 K); 0.000105 (in acetonitrile, 293.1 K); 0.000127 (in acetonitrile, 303.1 K); 0.000183 (in acetonitrile, 313.1 K); 0.000292 (in acetonitrile, 323.1 K); 5.08e-05 (in ethyl acetate, 283.1 K). The solubility (mole fraction) by setting is: (in ethyl acetate, 293.1 K) 7.12e-05; (in ethyl acetate, 303.1 K) 0.000129; (in ethyl acetate, 313.1 K) 0.000175; (in ethyl acetate, 323.1 K) 0.00025; (in methanol, 283.1 K) 0.00635; (in methanol, 293.1 K) 0.00892. In addition, the solubility (mole fraction) was found to be 0.0132 (in methanol, 303.1 K); 0.0209 (in methanol, 313.1 K); 0.0309 (in methanol, 323.1 K); 9.7e-06 (in water, 283.1 K); 1.45e-05 (in water, 293.1 K); 2.02e-05 (in water, 303.1 K). Further, the solubility (mole fraction) came out at 3.18e-05 (in water, 313.1 K) and 5.09e-05 (in water, 323.1 K).

The values are drawn from BigSolDB 2.1.
